# Measurements reported in patent US11932845B2, “Microorganisms and methods for production of 4-hydroxybutyrate, 1,4-butanediol and related compounds” (priority 2012, dated 2024).
# How the values were obtained:
# [1] = tested on: alcohol dehydrogenase from Brevibacterium sp KU; conditions: oxidation of alcohols, cited from earlier work; for Relative Activity: 2-phenylethanol taken as 100%
# [2] = biological target: T1, L(+)-lactate dehydrogenase from rabbit muscle (Oryctolagus cuniculus, UniProt P13491); conditions: compared with that on pyruvate; cited from earlier work
# T1 construct: host or cells: rabbit muscle
# [3] = tested on: L(+)-lactate dehydrogenase from A. eutrophus; conditions: compared with that on pyruvate; cited from earlier work
# [4] = tested on: D(−)-lactate dehydrogenase from L. leichmanii; conditions: compared with that on pyruvate; cited from earlier work
# homoserine kinase = homoserine kinase (Escherichia coli, UniProt P00547); conditions: cited from earlier work
# [5] = tested on: 4-HB to BDO conversion pathway; experiment: Production of BDO from 10 mM 4-HB in recombinant E. coli strains; conditions: for BDO: 10 mM 4-HB, 24 hours, cat2 (0034) on pZA33
# Protocol: For the BDO production experiments, cat2 from Porphyromonas gingivalis W83 (gene 0034) was included on pZA33 for the conversion of 4-HB to 4-HB-CoA, while the candidate dehydrogenase genes were expressed on pZE13. The host strain was MG1655 lacI^Q. Along with the alcohol and aldehyde dehydrogenase candidates, we also tested the ability of CoA-dependent succinic semialdehyde dehydrogenases (sucD) to function in this step, due to the similarity of the substrates. Cells were grown to an OD of about 0.5 in LB medium supplemented with 10 mM 4-HB, induced with 1 mM IPTG, and culture broth samples taken after 24 hours and analyzed for BDO as described below.
# Finally, the construct was tested for participation in the conversion of 4-HB to BDO. Host strains were transformed with the pZA33-0020-0021 construct described and pZE13-0002, and compared to use of cat2 in BDO production using the aerobic procedure used above in FIG. 5.
# homoserine kinase, sequence (P00547 whole entry): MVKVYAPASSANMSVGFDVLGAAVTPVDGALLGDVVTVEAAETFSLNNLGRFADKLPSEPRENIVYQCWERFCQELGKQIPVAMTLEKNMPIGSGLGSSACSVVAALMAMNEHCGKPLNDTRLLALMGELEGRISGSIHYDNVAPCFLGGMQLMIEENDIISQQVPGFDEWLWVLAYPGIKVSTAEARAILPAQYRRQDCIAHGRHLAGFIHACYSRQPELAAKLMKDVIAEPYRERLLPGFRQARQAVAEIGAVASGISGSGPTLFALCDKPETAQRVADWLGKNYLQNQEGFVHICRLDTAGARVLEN
molecule,measurement,setting,value
CC(O)c1ccccc1 (stereo not shown) [1-Phenylethanol],Relative Activity,[1],46 0%
CCC(=O)C(=O)O [2-Oxobutyrate],Activity (%) of L(+)-lactate dehydrogenase from rabbit muscle,[2],18.6%
same,Activity (%) of L(+)-lactate dehydrogenase from A. eutrophus,[3],107.0%
same,Activity (%) of D(−)-lactate dehydrogenase from L. leichmanii,[4],1.1%
CCCC(=O)C(=O)O [2-Oxovalerate],Activity (%) of L(+)-lactate dehydrogenase from rabbit muscle,[2],0.7%
same,Activity (%) of L(+)-lactate dehydrogenase from A. eutrophus,[3],125.0%
same,Activity (%) of D(−)-lactate dehydrogenase from L. leichmanii,[4],0.0%
O=C(O)C(=O)CF [3-Fluoropyruvate],Activity (%) of L(+)-lactate dehydrogenase from rabbit muscle,[2],74.3%
same,Activity (%) of L(+)-lactate dehydrogenase from A. eutrophus,[3],33.6%
same,Activity (%) of D(−)-lactate dehydrogenase from L. leichmanii,[4],40.0%
CC(C)C(=O)C(=O)O [3-Methyl-2-oxobutyrate],Activity (%) of L(+)-lactate dehydrogenase from rabbit muscle,[2],0.0%
same,Activity (%) of L(+)-lactate dehydrogenase from A. eutrophus,[3],28.5%
same,Activity (%) of D(−)-lactate dehydrogenase from L. leichmanii,[4],0.0%
OCCCc1ccccc1 [3-Phenylpropanol],Relative Activity,[1],135 0%
same,Km,[1],33 µM
C[C@@H](CO)c1ccccc1 [(R)-2-Phenylpropanol],Relative Activity,[1],63 0%
same,Km,[1],20 µM
C[C@H](CO)c1ccccc1 [(S)-2-Phenylpropanol],Relative Activity,[1],156 0%
same,Km,[1],157 µM
N[C@H](CCO)C(=O)O [D-homoserine],% kcat,homoserine kinase,32%
CCO [Ethanol],Relative Activity,[1],76 0%
O=CC(=O)O [Glyoxylate],Activity (%) of L(+)-lactate dehydrogenase from A. eutrophus,[3],8.7%
same,Activity (%) of D(−)-lactate dehydrogenase from L. leichmanii,[4],5.0%
"N[C@H](CO)CCO [L-2-amino-1,4-butanediol]",% kcat,homoserine kinase,7.9%
N[C@@H](CCCO)C(=O)O [L-2-amino-5-hydroxyvalerate],% kcat,homoserine kinase,9.9%
same,Km,homoserine kinase,1100 ± 500 µM
N[C@@H](CC=O)C(=O)O [L-aspartate β-semialdehyde],% kcat,homoserine kinase,8.2%
same,Km,homoserine kinase,280 ± 20 µM
CCOC(=O)[C@@H](N)CCO [L-homoserine ethyl ester],% kcat,homoserine kinase,74%
CC(C)COC(=O)[C@@H](N)CCO [L-homoserine isobutyl ester],% kcat,homoserine kinase,84%
CC(C)OC(=O)[C@@H](N)CCO [L-homoserine isopropyl ester],% kcat,homoserine kinase,74%
COC(=O)[C@@H](N)CCO [L-homoserine methyl ester],% kcat,homoserine kinase,80%
CCCOC(=O)[C@@H](N)CCO [L-homoserine n-propyl ester],% kcat,homoserine kinase,76%
N[C@@H](CCO)C(=O)O [L-homoserine],% kcat,homoserine kinase,100%
CCCCOC(=O)[C@@H](N)CCO [L-homserine n-butyl ester],% kcat,homoserine kinase,160%
same,Km,homoserine kinase,5800 ± 800 µM
"CCCCO [Sample 1-Butanol, 1-Butanol]",Relative Activity,[1],111 0%
"CCCCCCCCCCCCO [Sample 1-Dodecanol, 1-Dodecanol]",Relative Activity,[1],68 0%
"CCCCCCCCO [Sample 1-Octanol, 1-Octanol]",Relative Activity,[1],101 0%
"CC(C)O [Sample 2-Propanol, 2-Propanol]",Relative Activity,[1],54 0%
"0008n: Gene ID 0008 (native), sucD, Clostridium kluyveri DSM 555, Succinic semialdehyde dehydrogenase (CoA-dependent) (protein, UniProt P38947 1-453, looked up) Succinate-semialdehyde …: MSNEVSIKELIEKAKVAQKKLEAYSQEQVDVLVKALGKVVYDNAEMFAKEAVEETEMGVYEDKVAKCHLKSGAIWNHIKDKKTVGIIKEEPERALVYVAKPKGVVAATTPITNPVVTPMCNAMAAIKGRNTIIVAPHPKAKKVSAHTVELMNAELKKLGAPENIIQIVEAPSREAAKELMESADVVIATGGAGRVKAAYSSGRPAYGVGPGNSQVIVDKGYDYNKAAQDIITGRKYDNGIICSSEQSVIAPAEDYDKVIAAFVENGAFYVEDEETVEKFRSTLFKDGKINSKIIGKSVQIIADLAGVKVPEGTKVIVLKGKGAGEKDVLCKEKMCPVLVALKYDTFEEAVEIAMANYMYEGAGHTAGIHSDNDENIRYAGTVLPISRLVVNQPATTAGGSFNNGFNPTTTLGCGSWGRNSISENLTYEHLINVSRIGYFNKEAKVPSYEEIWG",BDO/OD,[5]; Aerobic,47.6
same,BDO,[5]; Aerobic,255.8 µM
same,BDO/OD,[5]; Anaerobic,98.1
same,BDO,[5]; Anaerobic,60.8 µM
same,BDO/OD,[5]; Microaerobic,41.9
same,BDO,[5]; Microaerobic,127.9 µM
